Reference: ChEMBL document CHEMBL4382280, “Inhibitors of G12C Mutant Ras Proteins for the Treatment of Cancers” (ACS Med Chem Lett, 2019)

Molecular target: GTPase KRas (Homo sapiens, UniProt P01116, G12C)
Assay: Inhibition of GDP loaded biotin-labeled KRAS G12C mutant (unknown origin) assessed as reduction in guanine nucleotide exchange preincubated for 4 hrs followed by GST-RAF-RBD addition in presence of GTPgammaS by FRET assay

GTPase KRas, sequence (P01116 whole entry G12C): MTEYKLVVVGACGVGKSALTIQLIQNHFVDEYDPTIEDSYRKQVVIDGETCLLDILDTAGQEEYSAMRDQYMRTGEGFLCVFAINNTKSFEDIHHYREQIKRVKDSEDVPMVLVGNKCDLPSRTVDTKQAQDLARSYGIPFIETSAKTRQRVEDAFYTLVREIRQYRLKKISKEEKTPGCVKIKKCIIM

SMILES | IC50 [nM]
C=CC(=O)N1CCN2c3ncnc4cc(-c5c(C)ccc6[nH]ncc56)c(Cl)c(c34)OC[C@@H]2C1 (stereo in doubt; form 1) | 123
C=CC(=O)N1CCN2c3ncnc4cc(-c5c(C)ccc6[nH]ncc56)c(Cl)c(c34)OC[C@@H]2C1 (stereo in doubt; form 3) | 12
